Reference: PubChem BioAssay AID1918933 (Molecular Pharmacology Branch, DTP, NCI, 2023)
Where “and” joins values, the source holds several entries; their conditions need not be identical. Equal values may be shown once.

Test system: 186277-243-T-J2-PDC complex spheroid viability
Assay: Anticancer human tumor 186277-243-T-J2-PDC patient-derived colon adenocarcinoma cell line growth inhibition
Conditions: for viability, T/C: stronger effect = lower value
Procedure, shortened: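 Complex spheroids of tumor cells with HUVEC and human MSCs, exposed to iadademstat combined with other agents. Each agent tested in half-log steps from near clinical Cmax (else 10 microM top), DMSO ≤0.25%.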

[1] = curve of first compound, second compound 0.1 µM
[2] = curve of first compound, second compound 0.316 µM
[3] = curve of first compound, second compound 1 µM
[4] = curve of first compound, second compound 3.16 µM
[5] = curve of first compound, second compound 10 µM
[6] = second compound 0.1 µM, first compound 0.00949 µM
[7] = second compound 0.1 µM, first compound 0.03 µM
[8] = second compound 0.1 µM, first compound 0.0949 µM
[9] = second compound 0.1 µM, first compound 0.3 µM
[10] = second compound 0.1 µM, first compound 0.949 µM
[11] = second compound 0.1 µM, first compound 3 µM
[12] = second compound 0.316 µM, first compound 0.00949 µM
[13] = second compound 0.316 µM, first compound 0.03 µM
[14] = second compound 0.316 µM, first compound 0.0949 µM
[15] = second compound 0.316 µM, first compound 0.3 µM
[16] = second compound 0.316 µM, first compound 0.949 µM
[17] = second compound 0.316 µM, first compound 3 µM
[18] = second compound 1 µM, first compound 0.00949 µM
[19] = second compound 1 µM, first compound 0.03 µM
[20] = second compound 1 µM, first compound 0.0949 µM
[21] = second compound 1 µM, first compound 0.3 µM
[22] = second compound 1 µM, first compound 0.949 µM
[23] = second compound 1 µM, first compound 3 µM
[24] = second compound 3.16 µM, first compound 0.00949 µM
[25] = second compound 3.16 µM, first compound 0.03 µM
[26] = second compound 3.16 µM, first compound 0.0949 µM
[27] = second compound 3.16 µM, first compound 0.3 µM
[28] = second compound 3.16 µM, first compound 0.949 µM
[29] = second compound 3.16 µM, first compound 3 µM
[30] = second compound 10 µM, first compound 0.00949 µM
[31] = second compound 10 µM, first compound 0.03 µM
[32] = second compound 10 µM, first compound 0.0949 µM
[33] = second compound 10 µM, first compound 0.3 µM
[34] = second compound 10 µM, first compound 0.949 µM
[35] = second compound 10 µM, first compound 3 µM
[36] = second compound 0.1 µM, first compound 0.0316 µM
[37] = second compound 0.1 µM, first compound 0.1 µM
[38] = second compound 0.1 µM, first compound 0.316 µM
[39] = second compound 0.1 µM, first compound 1 µM
[40] = second compound 0.1 µM, first compound 3.16 µM
[41] = second compound 0.1 µM, first compound 10 µM
[42] = second compound 0.316 µM, first compound 0.0316 µM
[43] = second compound 0.316 µM, first compound 0.1 µM
[44] = second compound 0.316 µM, first compound 0.316 µM
[45] = second compound 0.316 µM, first compound 1 µM
[46] = second compound 0.316 µM, first compound 3.16 µM
[47] = second compound 0.316 µM, first compound 10 µM
[48] = second compound 1 µM, first compound 0.0316 µM
[49] = second compound 1 µM, first compound 0.1 µM
[50] = second compound 1 µM, first compound 0.316 µM
[51] = second compound 1 µM, first compound 1 µM
[52] = second compound 1 µM, first compound 3.16 µM
[53] = second compound 1 µM, first compound 10 µM
[54] = second compound 3.16 µM, first compound 0.0316 µM
[55] = second compound 3.16 µM, first compound 0.1 µM
[56] = second compound 3.16 µM, first compound 0.316 µM
[57] = second compound 3.16 µM, first compound 1 µM
[58] = second compound 3.16 µM, first compound 3.16 µM
[59] = second compound 3.16 µM, first compound 10 µM
[60] = second compound 10 µM, first compound 0.0316 µM
[61] = second compound 10 µM, first compound 0.1 µM
[62] = second compound 10 µM, first compound 0.316 µM
[63] = second compound 10 µM, first compound 1 µM
[64] = second compound 10 µM, first compound 3.16 µM
[65] = second compound 10 µM, first compound 10 µM
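Note: 7 day exposure to compounds.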
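Throughout, for viability, T/C: 100% = DMSO vehicle control viability.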

Nc1ccccc1NC(=O)c1ccc(CNC(=O)OCc2cccnc2)cc1 + NC1CC1c1ccc(-c2cccc(O)c2)cc1
IC50 [1]: 596 nM
IC50 [2]: 570 nM
IC50 [3]: 585 nM
IC50 [4]: 563 nM
IC50 [5]: 514 nM
viability, T/C [6]: 93.8%
viability, T/C [7]: 104%
viability, T/C [8]: 91.6%
viability, T/C [9]: 98.6%
viability, T/C [10]: 18.1%
viability, T/C [11]: 1.51%
viability, T/C [12]: 99.6%
viability, T/C [13]: 99.6%
viability, T/C [14]: 108%
viability, T/C [15]: 93.5%
viability, T/C [16]: 15.4%
viability, T/C [17]: 0.84%
viability, T/C [18]: 98.8%
viability, T/C [19]: 94.1%
viability, T/C [20]: 98.8%
viability, T/C [21]: 94.7%
viability, T/C [22]: 17.7%
viability, T/C [23]: 0.9%
viability, T/C [24]: 99.8%
viability, T/C [25]: 110%
viability, T/C [26]: 109%
viability, T/C [27]: 87.9%
viability, T/C [28]: 18.5%
viability, T/C [29]: 1.44%
viability, T/C [30]: 96.2%
viability, T/C [31]: 97.3%
viability, T/C [32]: 104%
viability, T/C [33]: 83.3%
viability, T/C [34]: 11.8%
viability, T/C [35]: 1.02%

CC1(C)CCC(CN2CCN(c3ccc(C(=O)NS(=O)(=O)c4ccc(NCC5CCOCC5)c([N+](=O)[O-])c4)c(Oc4cnc5[nH]ccc5c4)c3)CC2)=C(c2ccc(Cl)cc2)C1 + NC1CC1c1ccc(-c2cccc(O)c2)cc1
IC50 [1]: 2230 nM
IC50 [2]: 2260 nM
IC50 [3]: 2240 nM
IC50 [4]: 2410 nM
IC50 [5]: 2150 nM
viability, T/C [36]: 106%
viability, T/C [37]: 101%
viability, T/C [38]: 117%
viability, T/C [39]: 99.1%
viability, T/C [40]: 28.4%
viability, T/C [41]: 0.17%
viability, T/C [42]: 98.2%
viability, T/C [43]: 97.4%
viability, T/C [44]: 108%
viability, T/C [45]: 98.8%
viability, T/C [46]: 29.9%
viability, T/C [47]: 0.15%
viability, T/C [48]: 102%
viability, T/C [49]: 106%
viability, T/C [50]: 98.5%
viability, T/C [51]: 91.3%
viability, T/C [52]: 32.6%
viability, T/C [53]: 0.14%
viability, T/C [54]: 106%
viability, T/C [55]: 101%
viability, T/C [56]: 107%
viability, T/C [57]: 94.4%
viability, T/C [58]: 36.4%
viability, T/C [59]: 0.15%
viability, T/C [60]: 107%
viability, T/C [61]: 107%
viability, T/C [62]: 101%
viability, T/C [63]: 99.7%
viability, T/C [64]: 25%
viability, T/C [65]: 0.2%

COc1ccc([C@@H](O)c2cc(-c3ncnc4cc(N5CCOCC5)ccc34)c(F)cc2Cl)nn1 + NC1CC1c1ccc(-c2cccc(O)c2)cc1
IC50 [1]: 5370 nM
IC50 [2]: 4680 nM
IC50 [3]: 4390 nM
IC50 [4]: 4410 nM
IC50 [5]: 3730 nM
viability, T/C [36]: 105%
viability, T/C [37]: 109%
viability, T/C [38]: 112%
viability, T/C [39]: 96.3%
viability, T/C [40]: 81.8%
viability, T/C [41]: 14%
viability, T/C [42]: 109%
viability, T/C [43]: 108%
viability, T/C [44]: 110%
viability, T/C [45]: 89.1%
viability, T/C [46]: 70.8%
viability, T/C [47]: 12.8%
viability, T/C [48]: 107%
viability, T/C [49]: 113%
viability, T/C [50]: 114%
viability, T/C [51]: 80.9%
viability, T/C [52]: 68.7%
viability, T/C [53]: 12.9%
viability, T/C [54]: 110%
viability, T/C [55]: 118%
viability, T/C [56]: 97.1%
viability, T/C [57]: 102%
viability, T/C [58]: 64.7%
viability, T/C [59]: 11.7%
viability, T/C [60]: 97.7%
viability, T/C [61]: 103%
viability, T/C [62]: 106%
viability, T/C [63]: 91.3%
viability, T/C [64]: 57.8%
viability, T/C [65]: 5.72%

O=C(C=Cc1cccc(S(=O)(=O)Nc2ccccc2)c1)NO
viability, T/C (compound 0.00949 µM): 102% and 94.1%
viability, T/C (compound 0.03 µM): 100% and 96.4%
viability, T/C (compound 0.0949 µM): 84.3% and 80.5%
viability, T/C (compound 0.3 µM): 36.6% and 22.1%
viability, T/C (compound 0.949 µM): 15.3% and 3.68%
IC50 (curve of compound): 223 nM and 234 nM

CC(C)c1c(-c2ccccc2)nc2c(C#N)c[nH]n2c1=O
viability, T/C (compound 0.0316 µM): 94.8% and 108%
viability, T/C (compound 0.1 µM): 93.3% and 97.7%
viability, T/C (compound 0.316 µM): 101% and 99.1%
viability, T/C (compound 1 µM): 97.6% and 97.4%
viability, T/C (compound 3.16 µM): 96% and 82.9%
viability, T/C (compound 10 µM): 85.3% and 72.9%
IC50 (curve of compound): > 10000 nM

NS(=O)(=O)OCC1CC(n2ccc3c(NC4CCc5ccccc54)ncnc32)CC1O (stereo not drawn)
viability, T/C (compound 0.00949 µM): 93.9% and 100%
viability, T/C (compound 0.03 µM): 94.9% and 85.9%
viability, T/C (compound 0.0949 µM): 62.6% and 66.7%
viability, T/C (compound 0.3 µM): 37.2% and 33%
viability, T/C (compound 0.949 µM): 20.5% and 9.16%
viability, T/C (compound 3 µM): 7.98% and 4.41%
IC50 (curve of compound): 180 nM and 162 nM

CC1COCCN1c1cc(-c2ccnn2C)c2ccnc(-c3ccn[nH]3)c2n1 (stereo not drawn)
viability, T/C (compound 0.00316 µM): 77.4% and 18.2%
viability, T/C (compound 0.01 µM): 30.1% and 14%
viability, T/C (compound 0.0316 µM): 11.1% and 8.92%
viability, T/C (compound 0.1 µM): 9.14% and 7.83%
viability, T/C (compound 0.316 µM): 10.1% and 8.98%
viability, T/C (compound 1 µM): 11.4% and 7.8%
IC50 (curve of compound): 6.15 nM and < 3.16 nM

NC1CC1c1ccc(-c2cccc(O)c2)cc1 (stereo not drawn)
viability, T/C (compound 0.1 µM): 101%
viability, T/C (compound 0.316 µM): 102% [middle of 25 runs]
viability, T/C (compound 3.16 µM): 107% [middle of 25 runs]
IC50 (compound alone, run of 02/01/2022): > 10000 nM

NS(=O)(=O)OCC1CC(n2ccc3c(NC4CCc5ccccc54)ncnc32)CC1O (stereo not drawn) + NC1CCC(NC2CC2c2ccccc2)CC1
IC50 [1]: 521 nM
IC50 [2]: 474 nM
IC50 [3]: 518 nM
IC50 [4]: 686 nM
IC50 [5]: 907 nM
viability, T/C [6]: 113%
viability, T/C [7]: 96.2%
viability, T/C [8]: 85.8%
viability, T/C [9]: 65.8%
viability, T/C [10]: 33.2%
viability, T/C [11]: 9.95%
viability, T/C [12]: 126%
viability, T/C [13]: 112%
viability, T/C [14]: 97.3%
viability, T/C [15]: 63%
viability, T/C [16]: 29.6%
viability, T/C [17]: 12.1%
viability, T/C [18]: 121%
viability, T/C [19]: 103%
viability, T/C [20]: 103%
viability, T/C [21]: 58.1%
viability, T/C [22]: 38.1%
viability, T/C [23]: 15.6%
viability, T/C [24]: 113%
viability, T/C [25]: 113%
viability, T/C [26]: 97.3%
viability, T/C [27]: 71.2%
viability, T/C [28]: 42.5%
viability, T/C [29]: 14%
viability, T/C [30]: 112%
viability, T/C [31]: 102%
viability, T/C [32]: 92.8%
viability, T/C [33]: 73%
viability, T/C [34]: 49.8%
viability, T/C [35]: 15.1%

CC[C@@]1(O)C(=O)OCc2c1cc1n(c2=O)Cc2cc3c(CN(C)C)c(O)ccc3nc2-1
viability, T/C (compound 0.000316 µM): 113% and 102%
viability, T/C (compound 0.001 µM): 101% and 98%
viability, T/C (compound 0.00316 µM): 95.7% and 113%
viability, T/C (compound 0.01 µM): 93.4% and 118%
viability, T/C (compound 0.0316 µM): 74.8% and 75.9%
viability, T/C (compound 0.1 µM): 41.5% and 30.9%
IC50 (curve of compound): 75.9 nM and 61.3 nM
